Measured values published in patent US11309064B2, “Individualized dosing technique with multiple variables” (priority 2017, dated 2022).

Key:
INR [1] = assay: INR and individual INR/Warfarin dose equation (Examples 7 and 8)
INR [2] = assay: INR lab value at clinic visits under Warfarin (Example 4); type: in vivo, patient
INR [3] = assay: Software readout, predicted INR for a Warfarin dose (Example 5); design: species or system patient; settings: 5 mg by mouth every 24 hours
Description: The nurse takes their INR lab value and enters it into a software program. The health care provider has the software open on a computer or a hand held device. Then the provider asks the patient the relevant questions, does a physical exam and inputs this into the electronic form.

[4] = tested on: patients with nonvalvular AF; settings: long-term anticoagulation therapy; cited from earlier work
plasma proteins = settings: cited from earlier work
blood glucose = assay: Software readout, predicted blood glucose for an insulin dose (Example 6); design: species or system patient; settings: 100 units Subcutaneous every 24 hrs
Description: A diabetes patient tells the health care provider their average daily blood glucose value. A health care provider can do this over a phone or via the Internet. A physical exam, review of biological systems, and medicine reconciliation is done and the information is put into software program. Then, for example, the software may have readout of “Given the data collected, the dose of 100 units of insulin Subcutaneous every 24 hrs will result in blood glucose of between 90-150 with a 50%-90% possibility if compliant with medications and no other variables change.”

CC(=O)CC(c1ccccc1)c1c(O)c2ccccc2oc1=O (racemic) [Warfarin]
INR (INR [1]; Lasix 30 mg/day and Warfarin 7.5 mg/day): ~3
INR (INR [1]; Warfarin 7.5 mg, 1 week after start of amoxicillin 500 mg / clavulanate 250 mg 3 times a day): 2.5
INR (INR [1]; Warfarin 7.5 mg, next office visit after amoxicillin/clavulanate): 6
INR (INR [1]; a week later again): 9
observed INR (INR [1]; after Lasix increased to 60 mg/day, Warfarin dose from earlier formula): 4-5
INR (INR [1]; after Warfarin stopped, blood transfusion and a dose of Vitamin K): 3.5
INR (INR [2]; 1 month later on 5 mg Warfarin, Lasix 40 mg every 24 hours, over 3 glasses of wine last evening): 4.3
INR (INR [2]; 1 week on 7 mg Warfarin by mouth everyday, with HCTZ 25 mg, Doxycycline 100 mg every 12 hours, some aspirin): 3.4
INR (INR [2]; 2 weeks after restart at 5 mg Warfarin, Lasix 60 mg a day, 73 kg, antidepressant): 2.3
INR (INR [2]; 2 weeks on 5 mg Warfarin every day, HCTZ 25 mg only): 2.5
predicted INR (INR [3]): 2-3
reduction of the risk for ischemic stroke [4]: approximately 68%

CC/C(=C(\c1ccccc1)c1ccc(OCCN(C)C)cc1)c1ccccc1 [Tamoxifen]
protein binding (plasma proteins): Tamoxifen and Warfarin are highly protein bound. Tamoxifen

COc1cc([C@@H]2c3cc4c(cc3[C@@H](O[C@@H]3O[C@@H]5CO[C@@H](C)O[C@H]5[C@H](O)[C@H]3O)[C@H]3COC(=O)[C@H]23)OCO4)cc(OC)c1O [etoposide]
protein binding (plasma proteins): Highly protein bound. Interacts with other protein-bound drugs

CC(=O)O[C@H]1C(=O)[C@@]2(C)[C@H]([C@H](OC(=O)c3ccccc3)[C@]3(O)C[C@H](OC(=O)[C@H](O)[C@@H](NC(=O)c4ccccc4)c4ccccc4)C(C)=C1C3(C)C)[C@]1(OC(C)=O)CO[C@@H]1C[C@@H]2O [paclitaxel]
protein binding (plasma proteins): Highly protein bound. Interacts with other protein-bound drugs

insulin
predicted blood glucose (blood glucose): 90-150
